target: T1, recombinant human GR (Homo sapiens, UniProt P04150); assay: Human Glucocorticoid Receptor (GR) Assay (fluorescence polarization, Panvera/Invitrogen kit); type: binding; settings: GS Red tracer, incubated at room temperature for 2 hours, 100% control 10 μM Dexamethasone, read-out: GRhuFL_FP_v2 (GR-binders) IC50
T1 construct: purchased Panvera/Invitrogen P2812 (kit P2893)
T1 sequence (P04150 1-777): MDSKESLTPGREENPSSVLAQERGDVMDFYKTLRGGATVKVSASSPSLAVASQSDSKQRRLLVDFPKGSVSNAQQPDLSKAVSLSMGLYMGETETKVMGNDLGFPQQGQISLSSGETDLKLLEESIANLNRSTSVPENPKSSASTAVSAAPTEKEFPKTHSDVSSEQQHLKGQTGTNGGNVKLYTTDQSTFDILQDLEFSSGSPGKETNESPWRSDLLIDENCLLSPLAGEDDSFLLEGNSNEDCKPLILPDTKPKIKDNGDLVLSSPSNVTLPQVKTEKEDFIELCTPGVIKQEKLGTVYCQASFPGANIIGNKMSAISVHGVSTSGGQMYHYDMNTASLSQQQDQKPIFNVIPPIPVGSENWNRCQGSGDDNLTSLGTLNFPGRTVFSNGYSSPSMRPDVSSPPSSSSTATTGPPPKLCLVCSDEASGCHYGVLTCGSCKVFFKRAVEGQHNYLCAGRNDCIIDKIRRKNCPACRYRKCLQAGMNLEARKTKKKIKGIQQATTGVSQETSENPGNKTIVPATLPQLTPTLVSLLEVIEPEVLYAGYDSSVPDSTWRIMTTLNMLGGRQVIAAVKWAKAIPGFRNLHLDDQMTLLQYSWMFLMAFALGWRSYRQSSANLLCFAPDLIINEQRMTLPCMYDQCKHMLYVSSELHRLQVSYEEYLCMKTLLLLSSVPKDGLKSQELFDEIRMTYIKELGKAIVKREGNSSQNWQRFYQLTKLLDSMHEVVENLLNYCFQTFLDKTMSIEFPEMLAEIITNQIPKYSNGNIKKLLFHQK
Protocol: Human Glucocorticoid Receptor (GR) Assay
The assay is based on a commercial kit from Panvera/Invitrogen (Part number P2893). The assay technology is fluorescence polarization. The kit utilises recombinant human GR (Panvera, Part number P2812), a Fluoromone™ labelled tracer (GS Red, Panvera, Part number P2894) and a Stabilizing Peptide 10X (Panvera, Part number P2815). The GR and Stabilizing Peptide reagents are stored at −70° C. while the GS Red is stored at −20° C. Also included in the kit are 1M DTT (Panvera, Part number P2325, stored at −20° C.) and GR Screening buffer 10X (Panvera, Part number P2814, stored at −70° C. initially but once thawed stored at room temperature). Avoid repeated freeze/thaws for all reagents. The GR Screening buffer 10X comprises 100 mM potassium phosphate, 200 mM sodium molybdate, 1 mM EDTA and 20% DMSO.
Test compounds (1 μL) and controls (1 μL) in 100% DMSO were added to black polystyrene 384-well plates (Greiner low volume black flat-bottom, part number 784076). […] was 100% DMSO and 100% control was 10 μM Dexamethasone. Background solution (8 μL; assay buffer 10X, Stabilizing Peptide, DTT and ice cold MQ water) was added to the background wells. GS Red solution (7 μL; assay buffer 10X, Stabilizing Peptide, DTT, GS Red and ice cold water) was added to all wells except background wells. GR solution (7 μL; assay buffer 10X, Stabilizing Peptide, DTT, GR and ice cold water) was added to all wells. The plate was sealed and incubated in a dark at room temperature for 2 hours. The plate was read in an Analyst plate reader (LJL Biosystems/Molecular Devices Corporation) or other similar plate reader capable of recording fluorescence polarization (excitation wavelength 530 nm, emission wavelength […] and a dichroic mirror at 561 nm). The IC50 values were calculated using XLfit model 205.

| IC50 [nM] | SMILES |
| --- | --- |
| 17 | Cc1cc(C)c(S(=O)(=O)N[C@@H](C)COc2cccc3cnccc23)c(C)c1 [Example 77, N-[(1S)-2-(5-Isoquinolinyloxy)-1-methylethyl]-2,4,6-trimethylbenzenesulfonamide] |
| 700 | Cc1csc(NC(=O)CN(CC(C)C)S(=O)(=O)c2cccc3ccccc23)n1 [Example 7] |
| 2200 | COC(=O)c1c(C)oc2ccc(N(C(=O)c3ccncc3)S(=O)(=O)c3ccc(C)cc3C)cc12 [Example 11] |
| 140 | Cc1cc(C)c(S(=O)(=O)N[C@@H](C)COc2cccc3ncccc23)c(C)c1 [Example 79, 2,4,6-Trimethyl-N-[(1S)-1-methyl-2-(5-quinolinyloxy)ethyl]benzenesulfonamide] |
| 18 | Cc1cc(C)c(S(=O)(=O)N[C@@H](C)CNc2ccc(C)c3ncccc23)c(C)c1 [Example 123, 2,4,6-Trimethyl-N-{(1S)-1-methyl-2-[(8-methylquinolin-5-yl)amino]ethyl}-benzenesulfonamide] |
| 1600 | CCCN(c1nc(C)c(Cl)c(OC)n1)S(=O)(=O)c1ccc(C)cc1 [Example 9] |
| 23 | Cc1cc(C)c(S(=O)(=O)N[C@@H](C)COc2cccc3[nH]ccc23)c(C)c1 [Example 78, N-[(1S)-2-(1H-Indol-4-yloxy)-1-methylethyl]-2,4,6-trimethylbenzenesulfonamide] |
| 540 | Cc1cc(Br)ccc1S(=O)(=O)NC(C)CCc1ccccc1 (stereo not drawn) [Example 19, 4-Bromo-2-methyl-N-(1-methyl-3-phenyl-propyl)-benzenesulfonamide] |
| 20 | Cc1cc(C)c(S(=O)(=O)N[C@@H](C)CNc2c(C)ccc3ncccc23)c(C)c1 [Example 124, 2,4,6-Trimethyl-N-{(1S)-1-methyl-2-[(6-methylquinolin-5-yl)amino]ethyl}-benzenesulfonamide] |
| 75 | Cc1cc(C)c(S(=O)(=O)N[C@@H](C)CNc2cccc3ncccc23)c(C)c1 [Example 126, 2,4,6-Trimethyl-N-[(1S)-1-methyl-2-(quinolin-5-Ylamino)ethyl]benzenesulfonamide] |
| 640 | O=[N+]([O-])c1cc(Cl)ccc1NCCCNS(=O)(=O)c1ccc2ccccc2c1 [Example 5] |
| 3400 | Cc1cc(C)c(S(=O)(=O)N[C@@H](C)COc2ncnc3ccccc23)c(C)c1 [Example 82, 2,4,6-Trimethyl-N-[(1S)-1-methyl-2-(4-quinazolinyloxy)ethyl]benzenesulfonamide] |
| 1200 | Cc1cc(C)c(S(=O)(=O)NCCc2c(C)[nH]c3ccc(C)cc23)c(C)c1 [Example 8] |
| 4400 | CCCCOc1ccc(NS(=O)(=O)c2cccc3c(N(C)C)cccc23)cn1 [Example 16] |
| 600 | CC(C)c1cc(C(C)C)c(S(=O)(=O)NCc2ccncc2)c(C(C)C)c1 [Example 10] |
| 1700 | C=CCN(c1nc(C)c(Cl)c(OC)n1)S(=O)(=O)c1ccc(C)cc1 [Example 14] |
| 96 | Cc1nn(-c2ccccc2)c(C)c1S(=O)(=O)N[C@@H](C)COc1cccc2cnccc12 [Example 160, N-[(1S)-2-(Isoquinolin-5-yloxy)-1-methylethyl]-3,5-dimethyl-1-phenyl-1-pyrazole-4-sulfonamide] |
| 90 | Cc1cc(C)c(S(=O)(=O)NC(C)CCc2ccccc2)c(C)c1 (stereo not drawn) [Example 32, 2,4,6-Trimethyl-N-(1-methyl-3-phenyl-propyl)-benzenesulfonamide] |
| 2200 | Cc1cc(NC(=O)CN(CC2CCCCC2)S(=O)(=O)c2cccc3ccccc23)no1 [Example 13] |
| 3000 | Cc1cccc(C)c1OCC(C)NS(=O)(=O)c1cccc([N+](=O)[O-])c1 (stereo not drawn) [Example 34, N-[2-(2,6-Dimethyl-phenoxy)-1-methyl-ethyl]-3-nitro-benzenesulfonamide] |
| 700 | CCOc1ccc(S(=O)(=O)NCCc2ccc(S(N)(=O)=O)cc2)c2cccnc12 [Example 6] |
| 6300 | CCNc1nc(NC(C)C)nc(OCCNS(=O)(=O)c2cc(C)ccc2C)n1 [Example 15] |
| 370 | Cc1cc(C)c(S(=O)(=O)N[C@@H](C)COc2ccnc3ccccc23)c(C)c1 [Example 81, 2,4,6-Trimethyl-N-[(1S)-1-methyl-2-(4-quinolinyloxy)ethyl]benzenesulfonamide] |
| 8900 | Cc1cc(C)c(S(=O)(=O)N[C@@H](C)COc2cccc3cccnc23)c(C)c1 [Example 83, 2,4,6-Trimethyl-N-[(1S)-1-methyl-2-(8-quinolinyloxy)ethyl]benzenesulfonamide] |
| 42 | Cc1cc(C)c(S(=O)(=O)N[C@@H](C)CNc2cccc3[nH]ncc23)c(C)c1 [Example 125, N-[(1S)-2-(1H-Indazol-4-ylamino)-1-methylethyl]-2,4,6-trimethylbenzenesulfonamide] |
| 6000 | Cc1cc(NC(=O)CN(C2CCCCC2)S(=O)(=O)c2cccc3ccccc23)no1 [Example 12] |
| 230 | Cc1cc(C)c(S(=O)(=O)N[C@@H](C)COc2ccc3c(c2)OCO3)c(C)c1 [Example 80, N-[(1S)-2-(1,3-Benzodioxol-5-yloxy)-1-methylethyl]-2,4,6-trimethylbenzenesulfonamide] |

From US20090093485A1, “Novel Sulphonamide Derivatives as Glucocorticoid Receptor Modulators for the Treatment of Inflammatory Diseases” (ASTRAZENECA AB, priority 2004, published 2009)
